In US20240307220A1, “Combination Therapy to Treat Temperature Sensitive Mutant Tumors” (H. LEE MOFFITT CANCER CENTER AND RESEARCH INSTITUTE INC., priority 2021, published 2024):

Tests used:
[1] = system: H1299 stably expressing ts p53 mutants; test: Apoptosis (PARP cleavage) and MTS cell viability in H1299 stably expressing ts p53 mutants treated with CPT; type: cell-based, human
Description: FIGS. 3A to 3D show induction of growth arrest and cell death by p53 ts mutants. […] DNA replication rate was measured by scintillation counting and normalized to cell number. […] PARP cleavage was determined by Western blot. FIGS. 3C and 3D show H1299 stably expressing ts p53 mutants treated with CPT at indicated concentrations for 48 hrs at 37° C. or 32° C. Cell viability was determined by MTS assay. The results are average of 3 experiments (mean±SD).
Western blot. Cells were lysed in lysis buffer (50 mM Tris-HCl pH 8.0, 5 mM EDTA, 150 mM NaCl, 0.5% Nonidet P-40, 1×protease inhibitor cocktail) and centrifuged for 10 minutes at 14,000×g, and the insoluble debris was discarded. Cell lysate (10-50 µg of protein) was fractionated by SDS-PAGE and transferred to Immobilion P filters (Millipore). […] MDM2 was detected using monoclonal antibody 3G9 produced in house. Other markers were detected using commercial antibodies: Actin (Sigma A5441), p53-DO1 (BD Pharmingen #554293), p21 (BD Pharmingen #556430), PUMA (CellSignaling #12450), PARP (BD Pharmingen #556362), p53 pSer15 (CellSignaling #9284), p53 acetyl-Lys382 (CellSignaling #2525).
Cell proliferation and viability assays. DNA replication was analyzed using ^3H-thymidine incorporation assay. […] The incorporated ^3H-thymidine was analyzed by liquid scintillation counting. […]

GA10-p53KO tumors = test: GA10-p53KO subcutaneous tumor xenografts in nude mice treated with CPT and hypothermia; type: in vivo; settings: 32 hr×5 format
Description: FIGS. 7A to 7E show hypothermia cooperates with chemotherapy to induce regression of tumors expressing ts p53. […] CPT (1.5 mg/kg) was given at the beginning of each hypothermia cycle. Average size of tumors was plotted over time (mean±SD). FIG. 7B contains pictures of a GA10 partial response tumor before and after treatment. FIG. 7C is a waterfall plot showing combined results of 3 experiments. Tumors with durable remission are marked as “cured”. FIG. 7D contains individual growth curves of representative GA10 tumors from FIG. 7A that achieved durable remission after treatment. FIG. 7E contains individual growth curves of GA10 tumors from FIG. 7A that relapsed and received re-treatment.
Animal experiment. Animal experiments were reviewed and approved by the University of South Florida IACUC. Athymic female nude mice (6-week old, Athymic Nude-Foxn1nu, Envigo) were injected subcutaneously with 0.1 ml 1:1 slurry of Matrigel (VWR 47743-715) and 1×10^7 cells in PBS at each site. The inoculated mice were housed in a cabinet set to 28° C. (ARIA BIO-C36 ventilated cabinet, TECNIPLAST) to ensure that tumors develop at ˜37° C. […] The mice were kept in the 28° C. cabinet and monitored using infrared thermal imaging camera (FLIR ONE Pro, FLIR® Systems, Inc.) to verify that body temperature was maintained at ˜32° C. […]

UC3 bladder cancer cells = test: UC3 colony formation after 2 hrs drug treatment, washout and 32° C. or 37° C. incubation; type: cell-based; settings: 2 hrs drug at 37° C., washout, 32° C. vs 37° C. 24 hrs, then 7 days at 37° C.
Description: FIGS. 17A and 17B show hypothermia treatment given after chemotherapy enhances drug response in bladder cancer. […] The washed cells were incubated at 32° C. or 37° C. for 24 hrs, followed by 7 days at 37° C. and crystal violet staining for colony formation.
Standard bladder intravesical chemotherapy involves 1-2 hr irrigation with drugs at 37° C. or 42° C. The effect of treating cells with 32° C. hypothermia after chemotherapy was tested to avoid interference with drug uptake. TS mutant p53 activation peaks 6-8 hrs after shift to 32° C., which should cooperate with chemotherapy-induced DNA damage to induce cell death. […] Saline irrigation of up to 24 hrs is routinely performed after transurethral resection of bladder tumor (TURBT) procedure to prevent clotting. Therefore, irrigation with cooled saline after intravesical chemotherapy is expected to be well-tolerated and safe.

In the case of `CC[C@@]1(O)C(=O)OCc2c1cc1n(c2=O)Cc2cc3ccccc3nc2-1` [CPT, Camptothecin], the “apoptosis indicated by PARP cleavage” value ([1]; 0.5 μM CPT for 48 hrs at 32° C., 1% FBS) is reported as “cooperated with CPT to induce apoptosis”, the “cell viability (MTS assay)” value ([1]; CPT for 48 hrs at 32° C.) is reported as “loss of cell viability” and the “GA10-p53KO complete response or durable remission” value (GA10-p53KO tumors; CPT 1.5 mg/kg and 32° C. hypothermia) is reported as “did not achieve complete response or durable remission”. The “GA10-p53KO tumor size change” value (GA10-p53KO tumors; p53-independent effects of CPT and hypothermia) was “modest shrinkage” and the “effect of 32° C. for 24 hrs after drug on growth inhibition (colony formation)” value (UC3 bladder cancer cells) was “significantly increased the growth inhibition potency”.
